According to patent US12084472B2 (Ardelyx, Inc., priority 2015, dated 2024):
Where a name gives a salt, the structure may show the parent alone.

Target: T1, human TGR5 (Homo sapiens, UniProt Q8TDU6)
T1 construct: expressed in transfected cells; host or cells: HEK293
T1 sequence (Q8TDU6 1-330): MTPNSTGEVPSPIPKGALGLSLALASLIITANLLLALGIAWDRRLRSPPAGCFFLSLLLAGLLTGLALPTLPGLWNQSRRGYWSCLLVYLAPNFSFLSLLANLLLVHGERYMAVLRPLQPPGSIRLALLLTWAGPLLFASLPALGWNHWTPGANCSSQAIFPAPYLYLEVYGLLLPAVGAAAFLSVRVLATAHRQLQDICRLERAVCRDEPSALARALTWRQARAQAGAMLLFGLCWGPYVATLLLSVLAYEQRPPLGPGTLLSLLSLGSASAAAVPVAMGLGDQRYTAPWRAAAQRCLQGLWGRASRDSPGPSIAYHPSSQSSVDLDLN
Test: Cell-based TGR5 assay (cAMP generation, HTRF)
Details: HEK293 cells stably transfected with human TGR5; cAMP by HTRF; 30 minutes at 37° C.; read-out: pEC50 Human TGR5 (converted)
How it was run: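 First, compounds in 3-fold serial dilution were placed in HBSS with 10 mM HEPES pH 7.4 and 0.5 mM IBMX. Next, human TGR5-expressing HEK293 cells were added and incubated 30 min at 37° C. Finally, cAMP was detected by HTRF and pEC50 derived by logistic fitting.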

With `CCNC(=O)CCN(C[C@H](O)[C@@H](O)[C@H](O)[C@H](O)CO)C(=O)CCCC(C)c1ccc(C)c(CNC2(c3cnccc3-c3ccccc3OC3CC3)CC2)c1` (stereo partly drawn) [Compound I-365, 5-{3-[({1-[4-(2-cyclopropoxyphenyl)pyridin-3-yl]cyclopropyl}amino)methyl]-4-methylphenyl}-N-[2-(ethylcarbamoyl)ethyl]-N-[(2S,3R,4R,5R)-2,3,4,5,6-pentahydroxyhexyl]hexanamide] as the compound, how does the EC50 read?
The EC50 was 126 to 1000 nM.

With `CN(CCCCNC(=O)NC[C@H](O)[C@@H](O)[C@H](O)[C@H](O)CO)S(=O)(=O)c1ccc(C(F)(F)F)c(CNC2(c3cnccc3-c3ccccc3OC3CC3)CC2)c1` [Compound I-468, 1-(4-{N-methyl3-[({11-[4-(2-cyclopropoxyphenyl)pyridin-3-yl]cyclopropyl}amino)methyl]-4-(trifluoromethyl)benzenesulfonamido}butyl)-3-[(2S,3R,4R,5R)-2,3,4,5,6-pentahydroxyhexyl]urea] as the compound, how does the EC50 read?
The EC50 was 126 to 1000 nM.

Which EC50 does the source give for `CC(CCCC(=O)N[C@@H](CO)[C@@H](O)[C@H](O)[C@H](O)CO)c1ccc(Cl)c(CNC2(c3cnccc3-c3ccccc3OC3CC3)CC2)c1` (stereo partly drawn) [Compound I-313, 5-{4-chloro-3-[({1-[4-(2-cyclopropoxyphenyl)pyridin-3-yl]cyclopropyl}amino)methyl]phenyl}-N-[(2S,3R,4S,5R)-1,3,4,5,6-pentahydroxyhexan-2-yl]hexanamide] here?
Its EC50 is under 100 nM.

For `Cc1ccc(CCCCC(=O)NC[C@H](O)[C@@H](O)[C@H](O)[C@H](O)CO)cc1COC1(c2cnccc2-c2ccccc2OC2CC2)CC1` (stereo in doubt) [Compound I-235, 5-[3-({1-[4-(2-cyclopropoxyphenyl)pyridin-3-yl]cyclopropoxy}methyl)-4-methylphenyl]-N-[(2S,3R,4R,5R)-2,3,4,5,6-pentahydroxyhexyl]pentanamide], which EC50 is on record?
Its EC50 is under 100 nM.

How did the EC50 turn out when `CCN(CCCCNC(=O)N[C@@H](CO)[C@@H](O)[C@H](O)[C@H](O)CO)S(=O)(=O)c1ccc(Cl)c(CNC2(c3cnccc3-c3ccccc3OC3CC3)CC2)c1` [Compound I-696, 1-[4-(N-ethyl[4-chloro-3-[([1-[4-(2-cyclopropoxyphenyl)pyridin-3-yl]cyclopropyl]amino)methyl]benzene]sulfonamido)butyl]-3-[(2S,3R,4S,5R)-1,3,4,5,6-pentahydroxyhexan-2-yl]urea] was run?
The EC50 was under 100 nM.

How did the EC50 turn out when `Cc1ccc(S(=O)(=O)N(C)CCCCNC(=O)NC[C@H](O)[C@@H](O)[C@H](O)[C@H](O)CO)cc1COC1(c2cnccc2-c2ccccc2OC2CC2)CC1` [Compound I-479, 1-{4-[N-methyl3-({1-[4-(2-cyclopropoxyphenyl)pyridin-3-yl]cyclopropoxy}methyl)-4-methylbenzenesulfonamido]butyl}-3-[(2S,3R,4R,5R)-2,3,4,5,6-pentahydroxyhexyl]urea] was run?
Its EC50 is under 100 nM.

Which EC50 does the source give for `CN(C[C@H](O)[C@@H](O)[C@H](O)[C@H](O)CO)C(=O)CCN(CCC(=O)N(C)C[C@H](O)[C@@H](O)[C@H](O)[C@H](O)CO)C(=O)CCCCc1cc(Cl)c(CNC2(c3cnccc3-c3ccccc3OC3CC3)CC2)cc1Cl` [Compound I-171, 5-{2,5-dichloro-4-[({1-[4-(2-cyclopropoxyphenyl)pyridin-3-yl]cyclopropyl}amino)methyl]phenyl}-N,N-bis(2-{methyl[(2S,3R,4R,5R)-2,3,4,5,6-pentahydroxyhexyl]carbamoyl}ethyl) pentanamide] here?
Its EC50 is 1260 to 10000 nM.

With `O=C(NCCCCSc1ccc(Cl)c(COC2(c3cnccc3-c3ccccc3OC3CC3)CC2)c1)N[C@H]1CC[C@H](NC(=O)NC[C@H](O)[C@@H](O)[C@H](O)[C@H](O)CO)CC1` [Compound I-632, 1-(4-{[4-chloro-3-({1-[4-(2-cyclopropoxyphenyl)pyridin-3-yl]cyclopropoxy}methyl)phenyl]sulfanyl}butyl)-3-[(1r,4r)-4-({[(2S,3R,4R,5R)-2,3,4,5,6-pentahydroxyhexyl]carbamoyl}amino)cyclohexyl]urea] as the compound, how does the EC50 read?
The EC50 was under 100 nM.

`Clc1ccc(Cl)c(COC2(c3cnccc3-c3ccccc3Cl)CC2)c1` [Compound I-768, 4-(2-chlorophenyl)-3-(1-((2,5-dichlorobenzyl)oxy)cyclopropyl)pyridine] was tested. Which EC50 did it give?
The EC50 was 126 to 1000 nM.

With `Cc1ccc(C(C)CCCC(=O)NC[C@H](O)[C@@H](O)[C@H](O)[C@H](O)CO)cc1CNC1(c2cnccc2-c2ccccc2OC2CC2)CC1` (stereo partly drawn) [Compound I-257, 5-[3-[([1-[4-(2-cyclopropoxyphenyl)pyridin-3-yl]cyclopropyl]amino)methyl]-4-methylphenyl]-N-[(2S,3R,4R,5R)-2,3,4,5,6-pentahydroxyhexyl]hexanamide dihydrochloride] as the compound, how does the EC50 read?
Its EC50 is under 100 nM.

For `CCS(=O)(=O)CCN(CCCCCSc1ccc(Cl)c(COC2(c3cnccc3-c3ccccc3OC3CC3)CC2)c1)C(=O)[C@@H](O)[C@@H](O)[C@H](O)[C@@H](O)CO` [Compound I-604, (2S,3S,4R,5S)-N-(5-{[4-chloro-3-({1-[4-(2-cyclopropoxyphenyl)pyridin-3-yl]cyclopropoxy}methyl)phenyl]sulfanyl}pentyl)-N-[2-(ethanesulfonyl)ethyl]-2,3,4,5,6-pentahydroxyhexanamide], which EC50 is on record?
The EC50 was under 100 nM.

`CC(=O)N(CCCCc1cc(Cl)c(COC2(c3cnccc3-c3ccccc3OC3CC3)CC2)cc1Cl)C[C@H](O)[C@@H](O)[C@H](O)[C@H](O)CO` [Compound I-68, N-{4-[2,5-dichloro-4-({1-[4-(2-cyclopropoxyphenyl)pyridin-3-yl]cyclopropoxy}methyl)phenyl]butyl}-N-[(2S,3R,4R,5R)-2,3,4,5,6-pentahydroxyhexyl]acetamide] was tested. Which EC50 did it give?
Its EC50 is under 100 nM.

With `Fc1ccc(OC2CC2)c(-c2ccncc2C2(NCc3cc(Cl)ccc3Cl)CC2)c1` [Compound I-3, 1-[4-(2-cyclopropoxy-5-fluorophenyl)pyridin-3-yl]-N-[(2,5-dichlorophenyl)methyl]cyclopropan-1-amine] as the compound, how does the EC50 read?
The EC50 was under 100 nM.

Which EC50 does the source give for `O=C(CCCCc1cc(Cl)c(COC2(c3cnccc3-c3ccccc3OC3CC3)CC2)cc1Cl)N(C[C@H](O)[C@@H](O)[C@H](O)[C@H](O)CO)C1CCOCC1` [Compound I-131, 5-[2,5-dichloro-4-({1-[4-(2-cyclopropoxyphenyl)pyridin-3-yl]cyclopropoxy}methyl)phenyl]-N-(oxan-4-yl)-N-[(2S,3R,4R,5R)-2,3,4,5,6-pentahydroxyhexyl]pentanamide] here?
The EC50 was under 100 nM.

For `O=C(NC[C@H](O)[C@@H](O)[C@H](O)[C@H](O)CO)C12CCC(NS(=O)(=O)c3ccc(Cl)c(COC4(c5cnccc5-c5ccccc5OC5CC5)CC4)c3)(CC1)CC2` [Compound I-445, 4-[4-chloro-3-({1-[4-(2-cyclopropoxyphenyl)pyridin-3-yl]cyclopropoxy}methyl)benzenesulfonamido]-N-[(2S,3R,4R,5R)-2,3,4,5,6-pentahydroxyhexyl]bicyclo[2.2.2]octane-1-carboxamide], which EC50 is on record?
The EC50 was 126 to 1000 nM.

Which EC50 does the source give for `O=C(CCCC1CN(S(=O)(=O)c2ccc(Cl)c(COC3(c4cnccc4-c4ccccc4OC4CC4)CC3)c2)C1)NC[C@H](O)[C@@H](O)[C@H](O)[C@H](O)CO` [Compound I-453, 4-{1-[4-chloro-3-({1-[4-(2-cyclopropoxyphenyl)pyridin-3-yl]cyclopropoxy}methyl)benzenesulfonyl]azetidin-3-yl}-N-[(2S,3R,4R,5R)-2,3,4,5,6-pentahydroxyhexyl]butanamide] here?
Its EC50 is under 100 nM.
